System: Plasmopara viticola
Experiment: activity against peronospora of grapevines caused by Plasmopara viticola, protective application
Type: in vivo
Settings: individual active compound, potted vines Müller-Thurgau, untreated control 71% infection
Description: The active compounds, separately or jointly, were prepared as a stock solution comprising 0.25% by weight of active compound in acetone or DMSO. 1% by weight of the emulsifier Uniperol® EL (wetting agent having emulsifying and dispersant action based on ethoxylated alkylphenols) was added to this solution, and the mixture was diluted with water to the desired concentration.
Use example—activity against peronospora of gravevines caused by Plasmopara viticola, protective application
Leaves of potted vines of the cultivar “Müller-Thurgau” were sprayed to runoff point with an aqueous suspension having the concentration of active compound stated below. The next day, the undersides of the leaves were inoculated with an aqueous zoospore suspension of Plasmopara viticola. The grapevines were then initially placed in a water-vapor-saturated chamber at 24° C. for 48 hours and then in a greenhouse at 20-30° C. for 5 days. After this period of time, the plants were again placed in a humid chamber for 16 hours to promote sporangiophore eruption. The extent of the development of the disease on the undersides of the leaves was then determined visually.
The visually determined percentages of infected leaf areas were converted into efficacies in % of the untreated control:
The efficacy (E) is calculated as follows using Abbot's formula: E=(1−α/β)·100 • α corresponds to the fungicidal infection of the treated plants in % and • β corresponds to the fungicidal infection of the untreated (control) plants in %
An efficacy of 0 means that the infection level of the treated plants corresponds to that of the untreated control plants; an efficacy of 100 means that the treated plants were not infected.
The expected efficacies of mixtures of active compounds were determined using Colby's formula (Colby, S. R. “Calculating synergistic and antagonistic responses of herbicide combinations”, Weeds, 15, 20-22, 1967) and compared with the observed efficacies.
Colby's formula: E=x+y−x·y/100 • E expected efficacy, expressed in % of the untreated control, when using the mixture of the active compounds A and B at the concentrations a and b • x efficacy, expressed in % of the untreated control, when using the active compound A at the concentration a • y efficacy, expressed in % of the untreated control, when using the active compound B at the concentration b

Structure (SMILES): CC1CCN(c2c(-c3c(F)cc(F)cc3F)c(Cl)nc3ncnn23)CC1 [I, 5-chloro-7-(4-methylpiperidin-1-yl)-6-(2,4,6-trifluorophenyl)-[1,2,4]triazolo[1,5-a]pyrimidine]
- Efficacy in % of the untreated control (4 ppm in the spray liquor): 1%
- Efficacy in % of the untreated control (16 ppm in the spray liquor): 44%

Structure (SMILES): CC1(C)CCC(Cc2ccc(Cl)cc2)C1(O)Cn1cncn1 (centres unmarked) [II (metconazole), 5-(4-chlorobenzyl)-2,2-dimethyl-1-[1,2,4]triazol-1-ylmethylcyclopentanol]
- Efficacy in % of the untreated control (4 ppm in the spray liquor): 1%
- Efficacy in % of the untreated control (16 ppm in the spray liquor): 1%

Structure (SMILES): CC1CCN(c2c(-c3c(F)cccc3Cl)c(Cl)nc3ncnn23)CC1 [comparative compound A]
- Efficacy in % of the untreated control (4 ppm in the spray liquor): 0%
- Efficacy in % of the untreated control (16 ppm in the spray liquor): 15%

Structure (SMILES): C[C@H](Nc1c(-c2c(F)cc(F)cc2F)c(Cl)nc2ncnn12)C(F)(F)F [comparative compound B]
- Efficacy in % of the untreated control (4 ppm in the spray liquor): 15%
- Efficacy in % of the untreated control (16 ppm in the spray liquor): 29%
